Laboratory results reported in patent US20230382924A1, “MODULATORS OF CYSTIC FIBROSIS TRANSMEMBRANE CONDUCTANCE REGULATOR” (VERTEX PHARMACEUTICALS INCORPORATED, priority 2020, published 2023).
Where two headings read alike, the source gives them in different places.

Key:
Format in all cases: cell-based
CFTR [1] = molecular target: T1, CFTR (Homo sapiens, UniProt P13569); assay: Membrane Potential Dye, Enteroid Assay A; conditions: for EC50: read-out: Ent. A EC50
How it was run: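 Signal is reported as % Activity relative to a triple CFTR modulator control (3 μM + 3 μM + 300 nM acute). Read-out: membrane potential fluorescence (20 μM methyl oxonol) monitored for 15 min after chloride-free stimulation. Dye loading took 25 min at room temperature in Bath 1 buffer containing CaCC blockers.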

F508del = molecular target: T2, F508del (Homo sapiens, UniProt P13569, DEL508-508); assay: 3T3 assay: membrane potential optical assay for F508del correction in NIH 3T3 cells; conditions: for Emax: NIH3T3
T2 construct: expressed in transfected cells
Source text: 1. Membrane Potential Optical Methods for Assaying F508del Modulation Properties of Compounds
The assay utilizes fluorescent voltage sensing dyes to measure changes in membrane potential using a fluorescent plate reader (e.g., FLIPR III, Molecular Devices, Inc.) as a readout for increase in functional F508del in NIH 3T3 cells. The driving force for the response is the creation of a chloride ion gradient in conjunction with channel activation by a single liquid addition step after the cells have previously been treated with compounds and subsequently loaded with a voltage sensing dye.
2. Identification of Corrector Compounds
To identify correctors of F508del, a single-addition HTS assay format was developed. This HTS assay utilizes fluorescent voltage sensing dyes to measure changes in membrane potential on the FLIPR III as a measurement for increase in gating (conductance) of F508del in F508del NIH 3T3 cells. The F508del NIH 3T3 cell cultures were incubated with the corrector compounds at a range of concentrations for 18-24 hours at 37° C., and subsequently loaded with a redistribution dye. The driving force for the response is a Cl^− ion gradient in conjunction with channel activation with forskolin in a single liquid addition step using a fluorescent plate reader such as FLIPR III.
Bath Solution #1: (in mM) NaCl 160, KCl 4.5, CaCl2) 2, MgCl2 1, HEPES 10, pH 7.4 with NaOH.
Chloride-free bath solution: Chloride salts in Bath Solution #1 (above) are substituted with gluconate salts.
NIH3T3 mouse fibroblasts stably expressing F508del are used for optical measurements of membrane potential. The cells are maintained at 37° C. in 5% CO2 and 90% humidity in Dulbecco's modified Eagle's medium supplemented with 2 mM glutamine, 10% fetal bovine serum, 1×NEAA, b-ME, 1×pen/strep, and 25 mM HEPES in 175 cm^2 culture flasks. For all optical assays, the cells were seeded at ˜20,000/well in 384-well matrigel-coated plates. For the correction assays, the cells are cultured at 37° C. with and without compounds for 16-24 hours.

CFTR [2] = molecular target: T1, CFTR; assay: Membrane Potential Dye, Enteroid Assay B; conditions: Table 9; for EC50: read-out: Ent. B EC50
How it was run: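 Enteroid cells loaded 25 min at room temperature with 20 μM methyl oxonol plus 30 μM CaCCinh-A01 and 30 μM Chicago Sky Blue, then switched to chloride-free gluconate buffer. Chloride transport was started by chloride-free stimulation solution, with fluorescence read for 15 min.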

[3] = NIH 3T3 cells, F508del correction
[4] = Table 8, read-out: 3T3 Max Activity

T2 sequence (P13569 with tags, fused parts or gaps DEL508-508): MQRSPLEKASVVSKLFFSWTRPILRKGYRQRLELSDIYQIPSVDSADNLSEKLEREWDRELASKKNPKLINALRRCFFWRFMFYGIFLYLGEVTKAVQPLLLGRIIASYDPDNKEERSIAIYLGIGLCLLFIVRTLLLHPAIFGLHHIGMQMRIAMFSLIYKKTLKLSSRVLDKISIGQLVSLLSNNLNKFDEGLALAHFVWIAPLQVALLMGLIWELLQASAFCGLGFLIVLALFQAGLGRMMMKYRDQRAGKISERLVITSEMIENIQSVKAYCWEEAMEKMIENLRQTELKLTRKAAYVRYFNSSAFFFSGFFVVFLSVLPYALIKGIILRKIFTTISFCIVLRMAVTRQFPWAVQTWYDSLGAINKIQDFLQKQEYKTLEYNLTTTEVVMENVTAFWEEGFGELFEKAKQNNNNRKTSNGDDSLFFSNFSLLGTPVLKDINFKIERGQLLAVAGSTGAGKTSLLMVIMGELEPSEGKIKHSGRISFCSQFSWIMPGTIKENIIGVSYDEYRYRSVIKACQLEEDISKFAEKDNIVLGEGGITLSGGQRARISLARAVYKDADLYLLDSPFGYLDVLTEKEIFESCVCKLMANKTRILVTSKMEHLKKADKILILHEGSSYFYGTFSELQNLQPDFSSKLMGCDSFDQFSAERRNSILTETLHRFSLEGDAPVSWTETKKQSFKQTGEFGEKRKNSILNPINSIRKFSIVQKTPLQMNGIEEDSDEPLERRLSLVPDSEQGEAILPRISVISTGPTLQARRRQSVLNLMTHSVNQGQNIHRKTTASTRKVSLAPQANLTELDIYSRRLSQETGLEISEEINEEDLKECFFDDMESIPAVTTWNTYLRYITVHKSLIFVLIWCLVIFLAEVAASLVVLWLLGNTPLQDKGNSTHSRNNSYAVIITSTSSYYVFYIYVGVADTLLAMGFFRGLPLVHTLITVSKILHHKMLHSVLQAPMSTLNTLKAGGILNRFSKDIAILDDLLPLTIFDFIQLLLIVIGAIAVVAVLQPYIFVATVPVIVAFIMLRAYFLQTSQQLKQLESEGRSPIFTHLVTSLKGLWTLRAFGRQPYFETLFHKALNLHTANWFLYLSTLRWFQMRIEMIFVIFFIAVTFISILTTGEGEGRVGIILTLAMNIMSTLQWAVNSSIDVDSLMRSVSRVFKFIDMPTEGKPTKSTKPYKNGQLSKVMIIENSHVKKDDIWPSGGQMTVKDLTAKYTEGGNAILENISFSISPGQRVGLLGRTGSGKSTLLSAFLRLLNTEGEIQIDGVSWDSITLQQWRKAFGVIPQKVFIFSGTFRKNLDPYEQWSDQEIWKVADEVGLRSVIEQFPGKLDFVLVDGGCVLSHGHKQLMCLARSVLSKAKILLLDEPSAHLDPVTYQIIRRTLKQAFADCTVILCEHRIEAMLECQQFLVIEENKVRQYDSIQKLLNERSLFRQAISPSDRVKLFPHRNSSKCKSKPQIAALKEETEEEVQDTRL
T1 sequence (P13569 with tags, fused parts or gaps DEL508-508): as above

SMILES	EC50 (F508del; [3]) [nM]	Ent. A Max Activity (CFTR [1]; Table 8)	EC50 (CFTR [1]; Table 8) [nM]	Emax (F508del; [4]) [%]	EC50 (F508del; Table 8) [nM]	other results
Cc1cccc(C)c1-c1cc2nc(n1)NS(=O)(=O)c1cccc(c1)C(=O)NCC(C)(C)CO2 [Compound 202]	< 1000	–	–	–	–	Ent. A Max Activity (CFTR [1]; Enteroid Assay A): ++ (++ is 30-60%); EC50 (CFTR [1]; Enteroid Assay A): 3000 to 30000 nM
Cc1cccc(C)c1-c1cc2nc(n1)NS(=O)(=O)c1cccc(c1)C(=O)NC[C@H](c1cccc(C(C)(C)C)c1)O2 (stereo in doubt) [Compound 274]	–	+ (+ is <30%)	3000 to 30000	> 60	< 1000	–
Cc1cccc(C)c1-c1cc2nc(n1)NS(=O)(=O)c1cccc(c1)C(=O)N[C@H](C(CC(C)C)CC(C)C)CO2 [Compound 494]	–	+++ (+++ is >60%)	< 1000	> 60	< 1000	–
Cc1cccc(C)c1-c1cc2nc(n1)NS(=O)(=O)c1cccc(c1)C(=O)N[C@H]1CC[C@H](CC1)O2 [Compound 198]	< 1000	–	–	–	–	Ent. A Max Activity (CFTR [1]; Enteroid Assay A): +++ (+++ is >600%); EC50 (CFTR [1]; Enteroid Assay A): 1000 to 3000 nM; Emax (F508del; heading: 3T3 Max Activity, NIH 3T3 cells, F508del correction): > 60%
Cc1cccc(C)c1-c1cc2nc(n1)NS(=O)(=O)c1cccc(c1)C(=O)NCC(c1ccc3c(c1)CC(C)(C)O3)O2 (stereo not drawn) [Compound 115]	–	–	1000 to 3000	> 60	< 1000	–
Cc1cccc(C)c1-c1cc2nc(n1)NS(=O)(=O)c1cccc(c1)C(=O)N[C@H](CC1CCCCC1)[C@H](C)O2 [Compound 143]	–	+++ (+++ is >60%)	< 1000	> 60	< 1000	–
Cc1cc(C(C)(C)C)ccc1[C@@H]1CNC(=O)c2cccc(c2)S(=O)(=O)Nc2nc(cc(-c3c(C)cccc3C)n2)O1 [Compound 155]	–	–	< 1000	> 60	< 1000	–
Cc1ccccc1-c1cc2nc(n1)NS(=O)(=O)c1cccc(c1)C(=O)N[C@H](CC(C)C)CO2 [Compound 329]	< 1000	–	–	–	–	Ent. A Max Activity (CFTR [1]; Enteroid Assay A): +++ (+++ is >600%); EC50 (CFTR [1]; Enteroid Assay A): < 1000 nM
Cc1cccc(C)c1-c1cc2nc(n1)NS(=O)(=O)c1ccccc1C(=O)NCC(C1CCC(C)(C)CC1)O2 (stereo not drawn) [Compound 284]	–	+++ (+++ is >60%)	< 1000	> 60	< 1000	–
Cc1cccc(C)c1-c1cc2nc(n1)NS(=O)(=O)c1cccc(c1)C(=O)NC[C@@H](c1ccc(C(C)(C)C)cn1)O2 (single isomer, unassigned) [Compound 7, 10-(5-tert-Butyl-2-pyridyl)-6-(2,6-dimethylphenyl)-2,2-dioxo-9-oxa-2λ^6-thia-3,5,12,19-tetrazatricyclo[12.3.1.14,8]nonadeca-1(18),4(19),5,7,14,16-hexaen-13-one]	–	+++ (+++ is >60%)	< 1000	> 60	< 1000	–
Cc1cccc(C)c1-c1cc2nc(n1)NS(=O)(=O)c1cccc(c1)C(=O)NCC(c1ccc3c(c1)OCO3)O2 (stereo not drawn) [Compound 118]	–	–	< 1000	> 60	< 1000	–
Cc1cccc(C)c1-c1cc2nc(n1)NS(=O)(=O)c1cccc(c1)C(=O)N[C@H](Cc1ccccc1)CO2 [Compound 350]	< 1000	–	–	–	–	Ent. A Max Activity (CFTR [1]; Enteroid Assay A): +++ (+++ is >600%); EC50 (CFTR [1]; Enteroid Assay A): < 1000 nM
Cc1cccc(C)c1-c1cc2nc(n1)NS(=O)(=O)c1cccc(c1)C(=O)NC[C@@H](Cc1ccccc1)O2 [Compound 347]	< 1000	–	–	–	–	Ent. A Max Activity (CFTR [1]; Enteroid Assay A): +++ (+++ is >600%); EC50 (CFTR [1]; Enteroid Assay A): < 1000 nM
Cc1cccc(C)c1-c1cc2nc(n1)NS(=O)(=O)c1cccc(c1)C(=O)NCC(c1ccc(C3(C(F)(F)F)CC3)cc1)O2 (racemic) [Compound 9, 6-(2,6-dimethylphenyl)-10-{4-[1-(trifluoromethyl)cyclopropyl]phenyl}-9-oxa-2λ^6-thia-3,5,12,19-tetraazatricyclo[12.3.1.14,8]nonadeca-1(18),4(19),5,7,14,16-hexaene-2,2,13-trione]	–	+++ (+++ is >60%)	< 1000	> 60	< 1000	–
Cc1cccc(C)c1-c1cc2nc(n1)NS(=O)(=O)c1cccc(c1)C(=O)NCCCO2 [Compound 204]	1000 to 3000	–	–	–	–	Ent. A Max Activity (CFTR [1]; Enteroid Assay A): ++ (++ is 30-60%)
CCCC[C@@H]1Oc2cc(-c3c(C)cccc3C)nc(n2)NS(=O)(=O)c2cccc(c2)C(=O)N[C@@H]1CC1CCCCC1 (stereo in doubt) [Compound 287]	–	+++ (+++ is >60%)	< 1000	> 60	< 1000	–
Cc1cccc(C)c1-c1cc2nc(n1)NS(=O)(=O)c1cccc(c1)C(=O)NC[C@@H](c1ccc(C(F)(F)F)cc1)O2 (stereo in doubt) [Compound 401]	–	+++ (+++ is >60%)	< 1000	> 60	< 1000	–
Cc1ccccc1-c1cc2nc(n1)NS(=O)(=O)c1cccc(c1)C(=O)N[C@H](CC1CCCCC1)CO2 [Compound 316]	< 1000	–	–	–	–	Ent. A Max Activity (CFTR [1]; Enteroid Assay A): +++ (+++ is >600%); EC50 (CFTR [1]; Enteroid Assay A): < 1000 nM
Cc1cccc(C)c1-c1cc2nc(n1)NS(=O)(=O)c1cccc(c1)C(=O)NC[C@H](C1CCCCC1)O2 (stereo in doubt) [Compound 270]	–	+ (+ is <30%)	–	> 60	< 1000	–
Cc1cccc(C)c1-c1cc2nc(n1)NS(=O)(=O)c1cncc(c1)C(=O)N[C@H](CC1CCCCC1)CO2 [Compound 412]	–	+++ (+++ is >60%)	< 1000	> 60	< 1000	–
CC(C)C[C@@H]1COc2cc(-c3ccccc3F)nc(n2)NS(=O)(=O)c2cccc(c2)C(=O)N1 [Compound 315]	–	+++ (+++ is >60%)	1000 to 3000	> 60	< 1000	–
Cc1cccc(C)c1-c1cc2nc(n1)NS(=O)(=O)c1cccc(c1)C(=O)NCC(c1ccc(C(C)C)cc1)O2 (stereo not drawn) [Compound 271]	–	+++ (+++ is >60%)	< 1000	–	< 1000	3T3 Max Activity (F508del; Table 8): +++ (+++ is >60%)
Cc1cccc(C)c1-c1cc2nc(n1)NS(=O)(=O)c1cccc(c1)C(=O)N[C@H](CCC(C)(C)C)CO2 (single isomer, unassigned) [Compound 47]	–	+++ (+++ is >60%)	< 1000	> 60	< 1000	–
Cc1cccc(C)c1-c1cc2nc(n1)NS(=O)(=O)c1cccc(c1)C(=O)NC1CCCC(C1)O2 (stereo not drawn) [Compound 203]	< 1000	–	–	–	–	Ent. A Max Activity (CFTR [1]; Enteroid Assay A): ++ (++ is 30-60%)
Cc1ccccc1-c1cc2nc(n1)NS(=O)(=O)c1cccc(c1)C(=O)N[C@H](CC(C)(C)C)CO2 [Compound 305]	–	+++ (+++ is >60%)	< 1000	> 60	< 1000	–
Cc1cccc(C)c1-c1cc2nc(n1)NS(=O)(=O)c1cccc(c1)C(=O)NC[C@@H](C1CCCCC1)O2 [Compound 269]	–	–	–	> 60	< 1000	–
Cc1ccc2cc1C(=O)N[C@H](CC1CCCCC1)COc1cc(-c3c(C)cccc3C)nc(n1)NS2(=O)=O [Compound 161]	3000 to 30000	–	–	–	–	–
Cc1cccc(C)c1-c1cc2nc(n1)NS(=O)(=O)c1cccc(c1)C(=O)N[C@@H]1CN(C(C)C)C[C@H]1O2 [Compound 375]	–	–	–	–	–	Ent. B Max Activity (CFTR [2]): ++ (++ is 30-60%); EC50 (CFTR [2]): 3000 to 30000 nM; Ent. A Max Activity (CFTR [1]; Table 9): +++ (+++ is >60%); EC50 (CFTR [1]; Table 9): 3000 to 30000 nM
Cc1cccc(C)c1-c1cc2nc(n1)NS(=O)(=O)c1cccc(c1)C(=O)NCC(c1ccc(C34CC(C3)C4)cc1)O2 (stereo not drawn) [Compound 396]	–	–	–	–	–	Ent. B Max Activity (CFTR [2]): ++ (++ is 30-60%); EC50 (CFTR [2]): < 1000 nM; Ent. A Max Activity (CFTR [1]; Table 9): +++ (+++ is >60%); EC50 (CFTR [1]; Table 9): < 1000 nM
Cc1cccc(C)c1-c1cc2nc(n1)NS(=O)(=O)c1cccc(c1)C(=O)N[C@@H](C(CC(C)C)c1ccccc1)CO2 (stereo in doubt) [Compound 181]	–	–	–	–	–	Ent. B Max Activity (CFTR [2]): +++ (+++ is >60%); EC50 (CFTR [2]): < 1000 nM; Ent. A Max Activity (CFTR [1]; Table 9): +++ (+++ is >60%); EC50 (CFTR [1]; Table 9): < 1000 nM
